# Test results published in PMC8131363 (Scientific Reports, 2021).
# Read-outs that look alike come from different tables or passages of the source.
# Columns and labels:
# [1] = target: T1, cCaSR (Felis catus, UniProt C7FF08)
# T1 sequence (C7FF08 1-1081): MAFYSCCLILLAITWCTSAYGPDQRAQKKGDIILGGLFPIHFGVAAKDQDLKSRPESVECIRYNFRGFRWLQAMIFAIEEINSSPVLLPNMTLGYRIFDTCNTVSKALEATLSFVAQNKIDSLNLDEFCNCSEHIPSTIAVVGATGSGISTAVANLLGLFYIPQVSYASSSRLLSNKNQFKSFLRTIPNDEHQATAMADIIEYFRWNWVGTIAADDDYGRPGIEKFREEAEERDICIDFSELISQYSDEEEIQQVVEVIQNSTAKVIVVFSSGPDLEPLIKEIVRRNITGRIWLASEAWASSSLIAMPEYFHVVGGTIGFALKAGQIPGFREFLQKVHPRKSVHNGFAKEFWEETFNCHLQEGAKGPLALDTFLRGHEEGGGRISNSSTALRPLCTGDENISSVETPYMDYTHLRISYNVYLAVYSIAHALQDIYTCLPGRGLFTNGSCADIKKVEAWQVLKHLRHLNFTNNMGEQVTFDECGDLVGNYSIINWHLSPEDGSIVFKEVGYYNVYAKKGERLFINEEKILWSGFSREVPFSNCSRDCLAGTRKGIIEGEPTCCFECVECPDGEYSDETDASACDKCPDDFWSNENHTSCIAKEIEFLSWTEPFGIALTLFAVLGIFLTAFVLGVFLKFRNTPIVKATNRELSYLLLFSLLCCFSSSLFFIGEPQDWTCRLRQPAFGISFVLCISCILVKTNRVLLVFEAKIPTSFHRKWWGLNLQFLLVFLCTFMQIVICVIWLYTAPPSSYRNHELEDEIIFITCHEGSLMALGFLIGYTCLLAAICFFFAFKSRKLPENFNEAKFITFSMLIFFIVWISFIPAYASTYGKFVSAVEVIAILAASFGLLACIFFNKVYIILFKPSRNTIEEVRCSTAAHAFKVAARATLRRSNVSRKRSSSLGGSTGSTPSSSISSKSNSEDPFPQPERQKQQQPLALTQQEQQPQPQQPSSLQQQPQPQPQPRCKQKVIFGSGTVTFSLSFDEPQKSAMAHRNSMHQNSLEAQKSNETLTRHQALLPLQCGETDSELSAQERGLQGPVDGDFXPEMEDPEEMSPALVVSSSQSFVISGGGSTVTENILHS
# [2] = target: T1, cCaSR; experiment: cCaSR PAM luminescence assay, double injection with 0.5 mM CaCl2, HEK293/T-REx/natClytin-cCaSR
# Description: The cCaSR expression constructs were stably-transfected in the mammalian cell line, HEK293/ T-REx/ natClytin. Transfections were performed by electroporation, following standard methodologies. Stably-transfected target and mock pools were obtained after 2–3 weeks of antibiotic selection, and clones were selected for testing. In order to evaluate the activity of each clone, 10 mM Calcium was injected onto the cells and the resulting luminescence was measured.
# All compounds screened on the receptor were analysed in parallel with Calcium, on the HEK293/ T-REx/ natClytin-cCaSR or hCaSR stable or transient cell lines. Prior to the measurements, the cells were incubated with 10 µM of photoprotein substrate, Coelenterazine, prepared in Calcium-free Tyrode’s buffer at 37 °C for 3–4 h. All the data was captured using a FLIPR Tetra (Molecular Devices). A single or double injection protocol was used to capture the data for potential agonists and PAMs, respectively. The compounds tested were all prepared at desired concentration in Calcium-Free Tyrode’s buffer supplemented with 0.5% DMSO. For the activity determination of potential agonists, the single injection protocol was used, with CaCl2 as the positive control for each run. Each compound was injected into specific wells and the luminescence signal was measured for 1 min. for each compound. For potential PAMs, the double injection protocol was used. The first injection was identical to the one described above for potential agonists. A 20 min. resting period followed the first injection and a second injection of 0.5 mM CaCl2 in Calcium-free Tyrode’s buffer was injected to all wells, and the resulting luminescence signal was again measured for 1 min for each compound.
# The half maximal effective concentrations (EC50) were identified by nonlinear regression using a variable slope model with the equation Y = Bottom + (X^Hillslope)*(Top–Bottom)/ (X^HillSlope + EC50^HillSlope), where Y is the agonist concentration, Top and Bottom are the plateaus in the same units as Y and HillSlope is the Slope factor or Hill slope. All calculations and plots were done using GraphPad Prism 8. […] In these cases the EC50 was noted as being higher than the maximum concentration used in the assay.
# [3] = Supplementary Table I, agonist assay, dash = no activity
# [4] = Supplementary Table I, PAM assay, dash = no activity
compound,measurement,setting,value
"CC(C)C1NC(C(=O)O)Cc2c1[nH]c1ccccc21 (stereo not drawn) [1-isopropyl-2,3,4,9-tetrahydro-1H-pyrido[3,4-b]indole-3-carboxylic acid]",EC50 Ago (M),[1]; [3],-
same,EC50 PAM (M),[2]; [4],-
"N[C@]1(C(=O)O)C[C@H](C(=O)O)C1 [1s,3s-1-aminocyclobutane-1,3-dicarboxylic acid]",EC50 PAM (M),[2]; [4],-
"NC(CCCC(N)C(=O)O)C(=O)O (stereo not drawn) [2,6-Diaminopimelic acid]",EC50 Ago (M),[1]; [3],-
same,EC50 PAM (M),[2]; [4],-
NC(CCCCCCCCCC(=O)O)C(=O)O (stereo not drawn) [2-aminododecanedioic acid],EC50 Ago (M),[1]; [3],-
same,EC50 PAM (M),[2]; [4],-
"COc1c(C)cc(C(=O)CC#N)cc1C [3,5-Dimethyl-4-methoxybenzoylacetonitrile]",EC50 Ago (M),[1]; [3],-
same,EC50 PAM (M),[2]; [4],-
CO[C@H]1[C@H](O)[C@@H](CO)OC(O)[C@@H]1O (stereo partly drawn) [3-O-Methyl-D-glucopyranose],EC50 Ago (M),[1]; [3],-
same,EC50 PAM (M),[2]; [4],-
"O=C(O)c1cc2c(cn1)[nH]c1ccccc12 [9H-pyrido[3,4-b]indole-3-carboxylic acid]",EC50 Ago (M),[1]; [3],-
same,EC50 PAM (M),[2]; [4],-
CC(C)[C@H](N)P(=O)(O)O [(1R)-(+)-(1-Amino-2-methylpropyl)phosphonic acid],EC50 Ago (M),[1],-
same,EC50 PAM (M),[2],-
"C[C@](N)(CC(=O)O)C(=O)O [(S)-a-Methylaspartic acid, (S)-α-Methylaspartic acid]",EC50 Ago (M),[1]; [3],-
same,EC50 PAM (M),[2]; [4],-
"Cc1ccc(C(C)(O)c2nc3ccccc3s2)c(C)c1 (stereo not drawn) [AC-265347, reference compound]",EC50 Ago (M),[1]; [3],-
"O.O.[Ba+2].[Cl-].[Cl-] [Ba^2+, Barium chloride dihydrate]",EC50 PAM (M),[2],-
"[Ba+2].[Cl-].[Cl-] [Ba^2+, Barium chloride dihydrate]",EC50,[1],1170 µM
same,EC50,[1]; read-out: EC50 Ago,1170 µM
same,EC50,[1]; read-out: cCaSR activity,1000 to 10000 µM
NCCCCCN [Cadaverine],EC50 Ago (M),[1]; [3],-
same,EC50 PAM (M),[2]; [4],-
"C[C@@H](N[C@H]1CCCC[C@@H]1NC(=O)c1ccc(Cl)cc1)c1cccc2ccccc12 [Calhex 231, reference compound]",EC50 Ago (M),[1]; [3],-
same,EC50 PAM (M),[2]; [4],-
"C[C@@H](NCc1cc2ccccc2[nH]1)c1cccc2ccccc12 [Calindol, reference compound]",EC50 Ago (M),[1]; [3],-
O=C([O-])[O-].O=C([O-])[O-].O=C([O-])[O-].[Ce+3].[Ce+3] [Cerium(III) carbonate],EC50 Ago (M),[1]; [3],-
same,EC50 PAM (M),[2]; [4],-
"C[C@@H](NCCCc1cccc(C(F)(F)F)c1)c1cccc2ccccc12 [Cinacalcet, reference compound]",EC50 Ago (M),[1]; [3],-
same,EC50,[2],0.746 µM
N[C@@H](CSSC[C@H](N)C(=O)O)C(=O)O [Cystine (disufide)],EC50 Ago (M),[1]; [3],-
same,EC50 PAM (M),[2]; [4],-
"OC[C@H]1OC(O)[C@H](O)[C@@H](O)[C@@H]1O (stereo partly drawn) [D-( +)-Glucose, D-(+)-Glucose]",EC50 Ago (M),[1]; [3],-
same,EC50 PAM (M),[2]; [4],-
NC(N)=NCCC[C@@H](N)C(=O)O [D-Arginine],EC50 Ago (M),[1]; [3],-
same,EC50 PAM (M),[2]; [4],-
N[C@H](CC(=O)O)C(=O)O [D-Aspartic Acid],EC50 Ago (M),[1]; [3],-
same,EC50 PAM (M),[2]; [4],-
"NC[C@@H]1O[C@H](O[C@H]2[C@@H](O)[C@H](O[C@@H]3[C@@H](O)[C@H](N)C[C@H](N)[C@H]3O[C@H]3O[C@H](CN)[C@@H](O)[C@H](O)[C@H]3N)O[C@@H]2CO)[C@H](N)[C@@H](O)[C@@H]1O [Neomycin, reference compound]",EC50 PAM (M),[2]; [4],-
C[C@@H](O)C(=O)SC[C@H](NC(=O)CC[C@H](N)C(=O)O)C(=O)NCC(=O)O [S-Lactoylglutathione],EC50 PAM (M),[2]; [4],-
NCCNCCNCCN [Triethylenetetramine],EC50 Ago (M),[1],-
NC(=O)CC[C@H](NC(=O)[C@H](CCC(=O)O)NC(=O)CC[C@H](N)C(=O)O)C(=O)O [γ-Glu-Glu-Gln],EC50 PAM (M),[2]; [4],-
N[C@@H](CCC(=O)N[C@@H](CCC(=O)O)C(=O)N[C@@H](CCC(=O)O)C(=O)O)C(=O)O [γ-Glu-Glu-Glu],EC50 PAM (M),[2]; [4],-
Poly-L-ornithine,EC50 PAM (M),[2]; [4],-
